Data: ChEMBL document CHEMBL1201862, “PubChem BioAssay data set” (2004)
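A five-concentration, 48-hour dose response in 96-well plates underlies each endpoint, interpolated linearly between surrounding concentrations. GI50 is the concentration that inhibits growth by half.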 Activity calls are given as the source filed them. Rule as the data show it: active = GI50 up to about 1.1 µM and inactive = higher.

How the values were obtained:
Experiment in all cases: DTP human tumour cell line panel, 48 h
HCT-15 = tested on: HCT-15
Malme-3M = tested on: Malme-3M
SNB-19 = tested on: SNB-19
SW-620 = tested on: SW-620
KM12 = tested on: KM12
OVCAR-5 = tested on: OVCAR-5
A549 = tested on: A549
786-0 = tested on: 786-0
OVCAR-4 = tested on: OVCAR-4
MOLT-4 = tested on: MOLT-4
SNB-75 = tested on: SNB-75
NCI-H460 = tested on: NCI-H460
CCRF-CEM = tested on: CCRF-CEM
ACHN = tested on: ACHN
U-251 = tested on: U-251
HOP-62 = tested on: HOP-62
SN12C = tested on: SN12C

SMILES	GI50 (HCT-15)	GI50 (Malme-3M)	GI50 (SNB-19)	GI50 (SW-620)	GI50 (KM12)	GI50 (OVCAR-5)	GI50 (A549)	GI50 (786-0)	GI50 (OVCAR-4)	GI50 (MOLT-4)	GI50 (SNB-75)	GI50 (NCI-H460)	GI50 (CCRF-CEM)	GI50 (ACHN)	GI50 (U-251)	GI50 (HOP-62)	GI50 (SN12C)
COC(=O)C(=O)C(C(=O)C(=O)Nc1cccc(C(C)=O)c1)c1nc2ccccc2nc1O (centres undefined)	> 100 µM	> 100 µM (inactive)	> 100 µM (inactive)	> 100 µM (inactive)	> 100 µM (inactive)	> 100 µM (inactive)	> 100 µM (inactive)	> 100 µM (inactive)	> 100 µM (inactive)	> 100 µM (inactive)	> 100 µM (inactive)	> 100 µM (inactive)	> 100 µM (inactive)	> 100 µM (inactive)			
CC(=O)NC1=C(C)C(=O)c2c(nc3n2CCC3OC(=O)CCl)C1=O (centres undefined)		3.66 µM (inactive)	16.6 µM (inactive)	8.99 µM (inactive)	15.6 µM (inactive)	12.9 µM (inactive)	12.9 µM (inactive)	9.48 µM (inactive)	1.52 µM (inactive)	1.69 µM (inactive)	16.3 µM (inactive)	20.1 µM (inactive)	1.45 µM (inactive)	20.7 µM (inactive)	3.3 µM (inactive)	17.1 µM (inactive)	11.7 µM (inactive)
COC(=O)C12OCC34C(CC5C(C)C6=CC(=O)OC6=CC5(C)C3C(O)C1O)OC(=O)C(O)C24 (centres undefined)	1.48 µM	0.159 µM (active)	0.0371 µM (active)	0.497 µM (active)	1.21 µM (inactive)	2.56 µM (inactive)	1.1 µM (active)	0.594 µM (active)	1.25 µM (inactive)	0.153 µM (active)	0.399 µM (active)	0.204 µM (active)		0.895 µM (active)	0.233 µM (active)	0.78 µM (active)	1.48 µM (inactive)
O=S(=O)(/C=C/c1ccc(Cl)cc1Cl)Cc1ccccc1CS(=O)(=O)/C=C/c1ccc(Cl)cc1Cl	46.2 µM		> 100 µM (inactive)	> 100 µM (inactive)	> 100 µM (inactive)	> 100 µM (inactive)	18 µM (inactive)	> 100 µM (inactive)	11.9 µM (inactive)	88.7 µM (inactive)	6.18 µM (inactive)	88.7 µM (inactive)	9.27 µM (inactive)	63.8 µM (inactive)	> 100 µM (inactive)	> 100 µM (inactive)	> 100 µM (inactive)
N#CC(C(=O)CCC(=O)Nc1ccc(Cl)cc1)c1ccc(Cl)cc1 (centres undefined)	> 100 µM	> 100 µM (inactive)	> 100 µM (inactive)	> 100 µM (inactive)	91.8 µM (inactive)	> 100 µM (inactive)	> 100 µM (inactive)	> 100 µM (inactive)	> 100 µM (inactive)	> 100 µM (inactive)		> 100 µM (inactive)	> 100 µM (inactive)	77.1 µM (inactive)	> 100 µM (inactive)	> 100 µM (inactive)	> 100 µM (inactive)
Cc1ccc(S(=O)(=O)N/N=C/c2oc(-c3ccccc3Cl)c(-c3ccccc3Cl)c2[N+](=O)[O-])cc1		24 µM (inactive)	15.6 µM (inactive)	21 µM (inactive)	> 100 µM (inactive)	17.5 µM (inactive)	24.2 µM (inactive)	19.5 µM (inactive)	30 µM (inactive)	11.5 µM (inactive)		13.2 µM (inactive)	7.24 µM (inactive)	13.9 µM (inactive)		17.6 µM (inactive)	14.8 µM (inactive)
CCOC(=O)C12CCCC1(O)N(NC(=O)c1cccc(Cl)c1)C(C)=C2C(=O)OC (centres undefined)	> 100 µM	> 100 µM (inactive)	> 100 µM (inactive)	> 100 µM (inactive)	> 100 µM (inactive)	> 100 µM (inactive)	> 100 µM (inactive)	> 100 µM (inactive)	> 100 µM (inactive)	55.7 µM (inactive)	34.5 µM (inactive)	> 100 µM (inactive)		> 100 µM (inactive)	> 100 µM (inactive)	> 100 µM (inactive)	> 100 µM (inactive)
C[C@@H](NS(=O)(=O)c1ccc(NC(=O)c2ccccc2)cc1)C(=O)O	> 100 µM	> 100 µM (inactive)	> 100 µM (inactive)	> 100 µM (inactive)	> 100 µM (inactive)	> 100 µM (inactive)	> 100 µM (inactive)	> 100 µM (inactive)	> 100 µM (inactive)	> 100 µM (inactive)	> 100 µM (inactive)	> 100 µM (inactive)	> 100 µM (inactive)	> 100 µM (inactive)	> 100 µM (inactive)		> 100 µM (inactive)
OCC(O)C(OC1OC(CO)C(O)C(O)C1O)c1nn(-c2ccc(Cl)cc2)c2nc3cc(Cl)c(Cl)cc3nc12 (centres undefined)	> 100 µM	> 100 µM (inactive)	> 100 µM (inactive)		> 100 µM (inactive)	> 100 µM (inactive)		> 100 µM (inactive)	> 100 µM (inactive)	> 100 µM (inactive)	> 100 µM (inactive)	> 100 µM (inactive)	> 100 µM (inactive)	> 100 µM (inactive)	> 100 µM (inactive)	> 100 µM (inactive)	> 100 µM (inactive)
COC(=O)c1cccn1C(=O)n1cccc1		> 100 µM (inactive)	> 100 µM (inactive)	> 100 µM (inactive)	> 100 µM (inactive)	> 100 µM (inactive)	> 100 µM (inactive)	> 100 µM (inactive)	> 100 µM (inactive)	> 100 µM (inactive)	62.1 µM (inactive)	> 100 µM (inactive)	> 100 µM (inactive)	> 100 µM (inactive)	> 100 µM (inactive)	> 100 µM (inactive)	> 100 µM (inactive)
CCN(CC)CC(=O)NC1c2ccccc2Oc2c(C)cccc21 (centres undefined)	> 100 µM		> 100 µM (inactive)	> 100 µM (inactive)		> 100 µM (inactive)	> 100 µM (inactive)	> 100 µM (inactive)	> 100 µM (inactive)	62.7 µM (inactive)	49.5 µM (inactive)	> 100 µM (inactive)	> 100 µM (inactive)	32.9 µM (inactive)		> 100 µM (inactive)	> 100 µM (inactive)
CC(=O)C1CCN(c2ccccc2)C1 (centres undefined)			> 100 µM (inactive)	> 100 µM (inactive)	> 100 µM (inactive)	> 100 µM (inactive)	> 100 µM (inactive)	> 100 µM (inactive)	> 100 µM (inactive)	> 100 µM (inactive)	> 100 µM (inactive)	> 100 µM (inactive)	> 100 µM (inactive)	> 100 µM (inactive)	> 100 µM (inactive)	> 100 µM (inactive)	> 100 µM (inactive)
N#CC12Cc3ccc4c(c3-c3cccc(c31)CCN2C(=O)c1ccccc1)OCO4 (centres undefined)	> 100 µM	64 µM (inactive)	> 100 µM (inactive)	> 100 µM (inactive)	> 100 µM (inactive)	> 100 µM (inactive)	> 100 µM (inactive)	71.6 µM (inactive)		> 100 µM (inactive)	34.7 µM (inactive)		> 100 µM (inactive)	71.8 µM (inactive)	> 100 µM (inactive)	> 100 µM (inactive)	> 100 µM (inactive)
O=CC1=CCC2c3[nH]c4ccccc4c3CCN2C1 (centres undefined)	68.1 µM	296 µM (inactive)	258 µM (inactive)	122 µM (inactive)	73.1 µM (inactive)	> 396 µM (inactive)	> 396 µM (inactive)	141 µM (inactive)		90.2 µM (inactive)		139 µM (inactive)	107 µM (inactive)	219 µM (inactive)	80 µM (inactive)	> 39.6 µM (inactive)	102 µM (inactive)
Clc1ccc(CCn2cncn2)c(Cl)c1	> 100 µM		> 100 µM (inactive)	> 100 µM (inactive)	> 100 µM (inactive)	> 100 µM (inactive)	> 100 µM (inactive)	> 100 µM (inactive)	> 100 µM (inactive)	> 100 µM (inactive)	> 100 µM (inactive)	> 100 µM (inactive)	> 100 µM (inactive)	> 100 µM (inactive)	> 100 µM (inactive)	> 100 µM (inactive)	> 100 µM (inactive)
CC#CC(=O)Nc1ccccc1CC(c1c[nH]c2ccccc12)c1c[nH]c2ccccc12	14.3 µM	16.6 µM (inactive)	18.5 µM (inactive)	16.2 µM (inactive)	22.3 µM (inactive)		20.5 µM (inactive)	18.3 µM (inactive)		5.68 µM (inactive)	5.51 µM (inactive)		11.3 µM (inactive)			20 µM (inactive)	15.1 µM (inactive)
Cc1cc2c(=O)cc(-c3ccc(C(F)(F)F)cc3)oc2c(C(=O)O)c1C	> 100 µM	> 100 µM (inactive)	> 100 µM (inactive)	> 100 µM (inactive)	> 100 µM (inactive)	> 100 µM (inactive)	> 100 µM (inactive)	> 100 µM (inactive)	> 100 µM (inactive)	> 100 µM (inactive)	> 100 µM (inactive)	> 100 µM (inactive)	> 100 µM (inactive)	> 100 µM (inactive)	> 100 µM (inactive)		> 100 µM (inactive)
COC(=O)C1CCC2(C)[C@H](CCC3O[C@]32C)[C@@]1(C)CC(=O)c1ccoc1 (some centres undefined)	81.1 µM	> 100 µM (inactive)	33.9 µM (inactive)	> 100 µM (inactive)	42.2 µM (inactive)	> 100 µM (inactive)	> 100 µM (inactive)	> 100 µM (inactive)	> 100 µM (inactive)	28.3 µM (inactive)		72.9 µM (inactive)	31.1 µM (inactive)	34.4 µM (inactive)	36.6 µM (inactive)	> 100 µM (inactive)	> 100 µM (inactive)
